Data: US20260232767A1, “INTERLEUKIN-23 RECEPTOR ANTAGONIST PEPTIDES FOR USE IN THE TREATMENT OF PSORIASIS” (Janssen Pharmaceutica NV, priority 2023, published 2026)

System: subjects with moderate-to-severe plaque psoriasis
Assay: Safety, adverse events, Example 2 through Week 56
Type: in vivo, human
Conditions: 50 mg QD
From the text: The LTE safety analysis was based on randomized participants in Example who entered the present long-term extension study and received at least one dose of study intervention (including a partial dose) during the study period.

Structure (SMILES): CC(=O)NCCCC[C@@H]1NC(=O)[C@H](Cc2c[nH]c3c(C)cccc23)NC(=O)[C@H]([C@@H](C)O)NC(=O)[C@H](CC(N)=O)NC(=O)[C@@H](NC(C)=O)C(C)(C)SSC(C)(C)[C@@H](C(=O)N[C@@H](Cc2ccc(OCCN)cc2)C(=O)N[C@@H](Cc2ccc3ccccc3c2)C(=O)NC2(C(=O)N[C@@H](CCC(=O)O)C(=O)N[C@@H](CC(N)=O)C(=O)N[C@@H](Cc3cccnc3)C(=O)N(C)CC(N)=O)CCOCC2)NC1=O [IL-23 receptor antagonist peptide, Ac-[Pen]*-N-T-[W(7-Me)]-[Lys(Ac)]-[Pen]*-Phe[4-(2-aminoethoxy)]-[2-Nal]-[THP]-E-N-[3-Pal]-Sarc-NH2 (*[Pen]-[Pen]* formdisulfidebond)]
- Subjects with AE leading to discontinuation: Insomnia (Week 16-56): 0
- Subjects with AE leading to discontinuation: Investigations (Week 16-56): 0
- Subjects with AE leading to discontinuation: Nervous system disorders (Week 16-56): 0
- Subjects with AE leading to discontinuation: Proctalgia (Week 16-56): 0
- Subjects with AE leading to discontinuation: Psoriasis (Week 16-56): 0
- Subjects with AE leading to discontinuation: Psychiatric disorders (Week 16-56): 0
- Subjects with AE leading to discontinuation: Skin and subcutaneous tissue disorders (Week 16-56): 0
- Subjects with AE leading to discontinuation: Vertigo (Week 16-56): 0
- Subjects with AE leading to discontinuation: Vomiting (Week 16-56): 0
- Subjects with COVID-19 associated AE of interest: SARS-CoV-2 test positive (Week 16-56): 0
- Subjects with treatment-emergent AE: Headache (Week 16-56): 0
- Subjects with treatment-emergent AE: Meniscus injury (Week 16-56): 0
- Subjects with treatment-emergent AE: Nervous system disorders (Week 16-56): 0
- Subjects with treatment-emergent AE: Vomiting (Week 16-56): 0
- Subjects with treatment-emergent serious AE: Cerebrovascular accident (Week 16-56): 0
- Subjects with treatment-emergent serious AE: Diverticulitis (Week 16-56): 0
- Subjects with treatment-emergent serious AE: Infections and infestations (Week 16-56): 0
- Subjects with treatment-emergent serious AE: Injury, poisoning and procedural complications (Week 16-56): 0
- Subjects with treatment-emergent serious AE: Intervertebral disc protrusion (Week 16-56): 0
- Subjects with treatment-emergent serious AE: Ligament injury (Week 16-56): 0
- Subjects with treatment-emergent serious AE: Neoplasms benign, malignant and unspecified (incl cysts and polyps) (Week 16-56): 0
- Subjects with treatment-emergent serious AE: Nervous system disorders (Week 16-56): 0
- Subjects with treatment-emergent serious AE: Respiratory, thoracic and mediastinal disorders (Week 16-56): 0
- Subjects with treatment-emergent serious AE: Tonsillar hypertrophy (Week 16-56): 0
- Subjects with treatment-emergent serious AE: Uterine leiomyoma (Week 16-56): 0
- Subjects with treatment-emergent serious AE: Ventricular dysfunction (Week 16-56): 0
- Acrochordon: number of subjects (through Week 56): 0
- Actinic keratosis: % of subjects (through Week 56): (2.3%)
- Actinic keratosis: number of subjects (through Week 56): 1
- Alopecia: number of subjects (through Week 56): 0
- Asthenia: number of subjects (through Week 56): 0
- Asthma: number of subjects (through Week 56): 0
- Atrioventricular block first degree: number of subjects (through Week 56): 0
- Basal cell carcinoma: % of subjects (through Week 56): (2.3%)
- Basal cell carcinoma: number of subjects (through Week 56): 1
- Blood and lymphatic system disorders: % of subjects (through Week 56): (7.0%)
- Blood and lymphatic system disorders: number of subjects (through Week 56): 3
- Bronchitis chronic: number of subjects (through Week 56): 0
- Bundle branch block right: number of subjects (through Week 56): 0
- Cardiac disorders: % of subjects (through Week 56): (2.3%)
- Cardiac disorders: number of subjects (through Week 56): 1
- Chills: number of subjects (through Week 56): 0
- Cholelithiasis: number of subjects (through Week 56): 0
- Chronic obstructive pulmonary disease: number of subjects (through Week 56): 0
- Coronary artery disease: % of subjects (through Week 56): (2.3%)
- Coronary artery disease: number of subjects (through Week 56): 1
- Cough: % of subjects (through Week 56): (4.7%)
- Cough: number of subjects (through Week 56): 2
- Decreased appetite: number of subjects (through Week 56): 0
- Depression: number of subjects (through Week 56): 0
- Dermal cyst: number of subjects (through Week 56): 0
- Dermatitis acneiform: number of subjects (through Week 56): 0
- Dermatitis contact: % of subjects (through Week 56): (2.3%)
- Dermatitis contact: number of subjects (through Week 56): 1
- Diabetes mellitus: number of subjects (through Week 56): 0
- Diffuse alopecia: number of subjects (through Week 56): 0
- Dysuria: number of subjects (through Week 56): 0
- Ear and labyrinth disorders: number of subjects (through Week 56): 0
- Endocrine disorders: number of subjects (through Week 56): 0
- Eye disorders: number of subjects (through Week 56): 0
- Eyelid skin dryness: number of subjects (through Week 56): 0
- Fatigue: % of subjects (through Week 56): (2.3%)
- Fatigue: number of subjects (through Week 56): 1
- General disorders and administration site conditions: % of subjects (through Week 56): (7.0%)
- General disorders and administration site conditions: number of subjects (through Week 56): 3
- Goiter: number of subjects (through Week 56): 0
- Haemochromatosis: number of subjects (through Week 56): 0
- Hand dermatitis: number of subjects (through Week 56): 0
- Hematuria: % of subjects (through Week 56): (2.3%)
- Hematuria: number of subjects (through Week 56): 1
- Hepatobiliary disorders: number of subjects (through Week 56): 0
- Hypercholesterolemia: number of subjects (through Week 56): 0
- Hyperglycemia: % of subjects (through Week 56): (2.3%)
- Hyperglycemia: number of subjects (through Week 56): 1
- Hyperlipidemia: number of subjects (through Week 56): 0
- Hypertension: % of subjects (through Week 56): (2.3%)
- Hypertension: number of subjects (through Week 56): 1
- Hypertransaminasemia: number of subjects (through Week 56): 0
- Hypertriglyceridemia: number of subjects (through Week 56): 0
- Hypoacusis: number of subjects (through Week 56): 0
- Immune system disorders: % of subjects (through Week 56): (2.3%)
- Immune system disorders: number of subjects (through Week 56): 1
- Influenza like illness: number of subjects (through Week 56): 0
- Insomnia: number of subjects (through Week 56): 0
- Intertrigo: number of subjects (through Week 56): 0
- Ketonuria: number of subjects (through Week 56): 0
- Leukocyturia: number of subjects (through Week 56): 0
- Leukopenia: % of subjects (through Week 56): (2.3%)
- Leukopenia: number of subjects (through Week 56): 1
- Libido decreased: number of subjects (through Week 56): 0
- Liver disorder: number of subjects (through Week 56): 0
- Lymphopenia: % of subjects (through Week 56): (4.7%)
- Lymphopenia: number of subjects (through Week 56): 2
- Menopause: % of subjects (through Week 56): (2.3%)
- Menopause: number of subjects (through Week 56): 1
- Metabolism and nutrition disorders: % of subjects (through Week 56): (2.3%)
- Metabolism and nutrition disorders: number of subjects (through Week 56): 1
- Neoplasms benign, malignant and unspecified (incl cysts and polyps): % of subjects (through Week 56): (4.7%)
- Neoplasms benign, malignant and unspecified (incl cysts and polyps): number of subjects (through Week 56): 2
- Nephrolithiasis: number of subjects (through Week 56): 0
- Neutropenia: % of subjects (through Week 56): (4.7%)
- Neutropenia: number of subjects (through Week 56): 2
- Night sweats: % of subjects (through Week 56): (2.3%)
- Night sweats: number of subjects (through Week 56): 1
- Non-cardiac chest pain: % of subjects (through Week 56): (2.3%)
- Non-cardiac chest pain: number of subjects (through Week 56): 1
- Ocular cyst: number of subjects (through Week 56): 0
- Oedema peripheral: % of subjects (through Week 56): (2.3%)
- Oedema peripheral: number of subjects (through Week 56): 1
- Oropharyngeal pain: number of subjects (through Week 56): 0
- Procedural pain: number of subjects (through Week 56): 0
- Productive cough: number of subjects (through Week 56): 0
- Proteinuria: number of subjects (through Week 56): 0
- Pruritus: % of subjects (through Week 56): (2.3%)
- Pruritus: number of subjects (through Week 56): 1
- Psoriasis: number of subjects (through Week 56): 0
- Psychiatric disorders: number of subjects (through Week 56): 0
- Pyrexia: number of subjects (through Week 56): 0
- Rash pruritic: number of subjects (through Week 56): 0
- Renal and urinary disorders: % of subjects (through Week 56): (2.3%)
- Renal and urinary disorders: number of subjects (through Week 56): 1
